Data from PubChem BioAssay AID1918958 (Molecular Pharmacology Branch, DTP, NCI, 2023).
Several values for one entry are separate records, joined by “and”; a condition that tells them apart may be missing. Equal values may be shown once.

Tested on: NCI-H196 complex spheroid viability
Test: Anticancer human tumor NCI-H196 cell line growth inhibition [LSD1];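 also: spheroids exposed to agents for 7 days before readout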;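 as to viability, T/C: 100% = DMSO vehicle control viability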
Conditions: for viability, T/C: stronger effect = lower value
Method in brief: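 Complex spheroids of tumor cells with HUVEC and human MSCs, exposed to iadademstat combined with other agents. Each agent tested in half-log steps from near clinical Cmax (else 10 microM top), DMSO ≤0.25%.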

[1] = curve of first compound, second compound 0.1 µM
[2] = curve of first compound, second compound 0.316 µM
[3] = curve of first compound, second compound 1 µM
[4] = curve of first compound, second compound 3.16 µM
[5] = curve of first compound, second compound 10 µM

O=C(C=Cc1cccc(S(=O)(=O)Nc2ccccc2)c1)NO + NC1CC1c1ccc(-c2cccc(O)c2)cc1
IC50 [1]: 138 nM
IC50 [2]: 129 nM
IC50 [3]: 149 nM
IC50 [4]: 137 nM
IC50 [5]: 152 nM
viability, T/C (second compound 0.1 µM, first compound 0.00949 µM): 106%
viability, T/C (second compound 0.1 µM, first compound 0.03 µM): 91.2%
viability, T/C (second compound 0.1 µM, first compound 0.0949 µM): 70.3%
viability, T/C (second compound 0.1 µM, first compound 0.3 µM): 9.6%
viability, T/C (second compound 0.1 µM, first compound 0.949 µM): 0.22%
viability, T/C (second compound 0.1 µM, first compound 3 µM): 0.32%
viability, T/C (second compound 0.316 µM, first compound 0.00949 µM): 96.7%
viability, T/C (second compound 0.316 µM, first compound 0.03 µM): 92.6%
viability, T/C (second compound 0.316 µM, first compound 0.0949 µM): 64.3%
viability, T/C (second compound 0.316 µM, first compound 0.3 µM): 10.6%
viability, T/C (second compound 0.316 µM, first compound 0.949 µM): 0.24%
viability, T/C (second compound 0.316 µM, first compound 3 µM): 0.42%
viability, T/C (second compound 1 µM, first compound 0.00949 µM): 112%
viability, T/C (second compound 1 µM, first compound 0.03 µM): 89.5%
viability, T/C (second compound 1 µM, first compound 0.0949 µM): 75.1%
viability, T/C (second compound 1 µM, first compound 0.3 µM): 13.9%
viability, T/C (second compound 1 µM, first compound 0.949 µM): 1.06%
viability, T/C (second compound 1 µM, first compound 3 µM): 0.34%
viability, T/C (second compound 3.16 µM, first compound 0.00949 µM): 101%
viability, T/C (second compound 3.16 µM, first compound 0.03 µM): 101%
viability, T/C (second compound 3.16 µM, first compound 0.0949 µM): 68.6%
viability, T/C (second compound 3.16 µM, first compound 0.3 µM): 10%
viability, T/C (second compound 3.16 µM, first compound 0.949 µM): 1.82%
viability, T/C (second compound 3.16 µM, first compound 3 µM): 0.33%
viability, T/C (second compound 10 µM, first compound 0.00949 µM): 115%
viability, T/C (second compound 10 µM, first compound 0.03 µM): 92.6%
viability, T/C (second compound 10 µM, first compound 0.0949 µM): 76.3%
viability, T/C (second compound 10 µM, first compound 0.3 µM): 14.5%
viability, T/C (second compound 10 µM, first compound 0.949 µM): 0.36%
viability, T/C (second compound 10 µM, first compound 3 µM): 0.36%

O=C(C=Cn1cnc(-c2cc(C(F)(F)F)cc(C(F)(F)F)c2)n1)NNc1cnccn1
viability, T/C (compound 0.00316 µM): 28.4% and 33.1%
viability, T/C (compound 0.01 µM): 31% and 30.9%
viability, T/C (compound 0.0316 µM): 19.2% and 19.6%
viability, T/C (compound 0.1 µM): 17.7% and 14.5%
viability, T/C (compound 0.316 µM): 13.8% and 10.2%
viability, T/C (compound 1 µM): 7.27% and 6.31%
IC50 (curve of compound): < 3.16 nM

Nc1ncn(C2CC(O)C(CO)S2)c(=O)n1 (stereo not drawn)
viability, T/C (compound 0.000949 µM): 96.8% and 102%
viability, T/C (compound 0.003 µM): 105% and 111%
viability, T/C (compound 0.00949 µM): 103% and 106%
viability, T/C (compound 0.03 µM): 106% and 111%
viability, T/C (compound 0.0949 µM): 111% and 116%
viability, T/C (compound 0.3 µM): 100% and 104%
IC50 (curve of compound): > 300 nM

O=C(c1cc(Cc2n[nH]c(=O)c3ccccc23)ccc1F)N1CCN(C(=O)C2CC2)CC1 + NC1CC1c1ccc(-c2cccc(O)c2)cc1
IC50 [1]: > 10000 nM
IC50 [2]: > 10000 nM
IC50 [3]: > 10000 nM
IC50 [4]: > 10000 nM
IC50 [5]: > 10000 nM
viability, T/C (second compound 0.1 µM, first compound 0.0316 µM): 85.5%
viability, T/C (second compound 0.1 µM, first compound 0.1 µM): 85.3%
viability, T/C (second compound 0.1 µM, first compound 0.316 µM): 89.4%
viability, T/C (second compound 0.1 µM, first compound 1 µM): 90.4%
viability, T/C (second compound 0.1 µM, first compound 3.16 µM): 87.2%
viability, T/C (second compound 0.1 µM, first compound 10 µM): 92.3%
viability, T/C (second compound 0.316 µM, first compound 0.0316 µM): 98%
viability, T/C (second compound 0.316 µM, first compound 0.1 µM): 90.3%
viability, T/C (second compound 0.316 µM, first compound 0.316 µM): 86.5%
viability, T/C (second compound 0.316 µM, first compound 1 µM): 86.2%
viability, T/C (second compound 0.316 µM, first compound 3.16 µM): 91.7%
viability, T/C (second compound 0.316 µM, first compound 10 µM): 83%
viability, T/C (second compound 1 µM, first compound 0.0316 µM): 90.8%
viability, T/C (second compound 1 µM, first compound 0.1 µM): 88.1%
viability, T/C (second compound 1 µM, first compound 0.316 µM): 95.8%
viability, T/C (second compound 1 µM, first compound 1 µM): 92.1%
viability, T/C (second compound 1 µM, first compound 3.16 µM): 87.2%
viability, T/C (second compound 1 µM, first compound 10 µM): 78%
viability, T/C (second compound 3.16 µM, first compound 0.0316 µM): 90.4%
viability, T/C (second compound 3.16 µM, first compound 0.1 µM): 99.3%
viability, T/C (second compound 3.16 µM, first compound 0.316 µM): 99.3%
viability, T/C (second compound 3.16 µM, first compound 1 µM): 92.3%
viability, T/C (second compound 3.16 µM, first compound 3.16 µM): 88.9%
viability, T/C (second compound 3.16 µM, first compound 10 µM): 76.7%
viability, T/C (second compound 10 µM, first compound 0.0316 µM): 84.9%
viability, T/C (second compound 10 µM, first compound 0.1 µM): 93.9%
viability, T/C (second compound 10 µM, first compound 0.316 µM): 88.9%
viability, T/C (second compound 10 µM, first compound 1 µM): 83%
viability, T/C (second compound 10 µM, first compound 3.16 µM): 83%
viability, T/C (second compound 10 µM, first compound 10 µM): 80.9%

Nc1ccccc1NC(=O)c1ccc(CNC(=O)OCc2cccnc2)cc1
viability, T/C (compound 0.00949 µM): 81.1% and 83.5%
viability, T/C (compound 0.03 µM): 65.5% and 73%
viability, T/C (compound 0.0949 µM): 42.2% and 39%
viability, T/C (compound 0.3 µM): 13.3% and 8.4%
viability, T/C (compound 0.949 µM): 0.4% and 0.47%
viability, T/C (compound 3 µM): 1.02% and 0.51%
IC50 (curve of compound): 63.2 nM and 65.4 nM

CCc1c2c(nc3ccc(O)cc13)-c1cc3c(c(=O)n1C2)COC(=O)[C@]3(O)CC
viability, T/C (compound 0.000949 µM): 99.5% and 104%
viability, T/C (compound 0.003 µM): 103% and 96.6%
viability, T/C (compound 0.00949 µM): 52.9% and 47.5%
viability, T/C (compound 0.03 µM): 2.96% and 3.28%
viability, T/C (compound 0.0949 µM): 1.29% and 0.86%
viability, T/C (compound 0.3 µM): 1.52% and 0.88%
IC50 (curve of compound): 10.1 nM and 8.88 nM
